Measurements published in the supplement of paper PMC10307832.

Experiments:
Experiment in all cases: relative viability (nuclei count vs DMSO), 5 days (fraction); higher = more cells survive
[1] = compound: COc1cccc2cc(-c3nc([C@H]4CC[C@H](C(=O)O)CC4)n4ncnc(N)c34)[nH]c12 [OSI-027] + C[C@]1(O)C[C@@H](c2nc(-c3ccc4ccc(-c5ccccc5)nc4c3)c3c(N)nccn32)C1 [Linsitinib] (partner 1 µM)
Procedure, shortened: (§1)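 Lung cancer cell lines were seeded in 1536-well plates and dosed by pin tool the next day, with either a single drug or a fixed anchor-drug dose combined with five library-drug doses (not always all listed) spaced in √10 steps. Five days later, one step fixed the cells and stained their nuclei (final 0.05% Triton X-100, 1% formaldehyde, 1 ug/ml Hoechst), and nuclei were counted on 4× images. Relative viability is the nuclei count in treated wells divided by the count in vehicle wells, and each value is the median of duplicate plates.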

[2] = compound: CCCS(=O)(=O)Nc1ccc(F)c(C(=O)c2c[nH]c3ncc(-c4ccc(Cl)cc4)cc23)c1F [Vemurafenib] + C[C@]1(O)C[C@@H](c2nc(-c3ccc4ccc(-c5ccccc5)nc4c3)c3c(N)nccn32)C1 [Linsitinib] (partner 1 µM)
Procedure, shortened: as §1

[3] = compound: CCCS(=O)(=O)Nc1ccc(F)c(C(=O)c2c[nH]c3ncc(-c4ccc(Cl)cc4)cc23)c1F [Vemurafenib] + Cc1cc(Nc2cc(N3CCN(C)CC3)nc(Sc3ccc(NC(=O)C4CC4)cc3)n2)n[nH]1 [Tozasertib] (partner 0.1 µM)
Procedure, shortened: as §1

[4] = compound: Cc1nc(NC(=O)N2CCC[C@H]2C(N)=O)sc1-c1ccnc(C(C)(C)C(F)(F)F)c1 [Alpelisib] + CC(C)C[C@H](NC(=O)[C@H](Cc1ccccc1)NC(=O)c1cnccn1)B(O)O [Bortezomib] (partner 0.002 µM)
Procedure, shortened: as §1

Cell Line	relative viability ([1]; first compound 0.01 µM)	relative viability ([1]; first compound 0.03162 µM)	relative viability ([1]; first compound 0.1 µM)	relative viability ([1]; first compound 0.3162 µM)	relative viability ([1]; first compound 1 µM)	relative viability ([2]; first compound 0.03162 µM)	relative viability ([2]; first compound 0.1 µM)	relative viability ([2]; first compound 0.3162 µM)	relative viability ([2]; first compound 1 µM)	relative viability ([3]; first compound 0.03162 µM)	relative viability ([3]; first compound 0.1 µM)	relative viability ([3]; first compound 0.3162 µM)	relative viability ([3]; first compound 1 µM)	relative viability ([4]; first compound 0.04 µM)	relative viability ([4]; first compound 0.1265 µM)	relative viability ([4]; first compound 0.4 µM)	relative viability ([4]; first compound 1.265 µM)	relative viability ([4]; first compound 4 µM)
201T	0.932	0.974	1.01	0.833	0.936	0.994	0.969	1.06	0.989	0.95	0.915	0.925	0.975	1.1	1.08	1.18	1.08	1.09
A549	0.582	0.479	0.372	0.263	0.0989	0.584	0.444	0.515	0.567									
A-427	1.15	1.08	1.05	0.746	0.882	1.09	1.1	1.03	1.15	0.194	0.203	0.238	0.227	0.889	0.843	0.978	0.849	0.893
ABC-1	0.768	0.749	0.58	0.32	0.316	0.711	0.753	0.942	0.853	0.151	0.174	0.181	0.202	0.312	0.295	0.268	0.363	0.266
BEN	0.923	0.613	0.627	0.384	0.271	0.913	0.921	0.683	0.724	0.515	0.52		0.426	0.793	0.733	0.807	0.761	0.697
CAL-12T	0.704	0.753	0.724	0.445	0.353	0.723	0.549	1.02	0.819	0.31	0.289	0.346	0.26	1.08		0.952		0.718
COR-L23	1.02	0.837	0.792	0.549	0.181	0.774	0.733	0.789	1.01	0.14	0.202	0.181	0.143	0.945	0.976	1.13	0.798	0.802
COR-L 105	1.07	0.737	0.966	0.749	0.431	1		1.3	1.17	0.394			0.433	0.92	0.86	1.33	0.735	0.782
Calu-6	0.959	0.87	0.864	0.673	0.504		0.981	0.745	0.927					0.952	0.827	1.1	0.852	1.03
ChaGo-K-1										0.22	0.195	0.257	0.204	0.921		1.07	0.839	0.791
EBC-1	0.901	0.886	0.916	0.78	0.419	0.859	0.822	0.891	1.02					0.574	0.559	0.584	0.428	0.423
EKVX	0.986	0.894	0.779	0.652	0.292	0.942		1.03	1.02	0.351		0.383	0.326	1.09	1.05	1.05	0.953	1.02
EMC-BAC-2	0.824	0.762	0.763	0.607	0.305	0.798	0.695	0.807	0.807	0.303	0.28	0.212	0.237	1.02	1.01	1.22	0.929	0.741
EPLC-272H	1.08	1.05	1.12	0.866	0.961	1.03	0.824	1.14	1.11	0.277	0.106	0.281	0.182	0.902	0.911	1.13	0.904	0.622
H3255	0.943	1	0.929	0.825	0.452	1		0.757	0.983	0.603		0.644	0.619	0.852	0.648	1.2	0.48	0.444
HARA	0.894	0.803	0.908	0.831	0.201	0.942		0.987	0.771	0.0946	0.0784	0.138	0.12	0.976	1.09	1.34	1.01	0.766
HCC-15	0.881	0.857	0.795	0.662	0.463	0.855	0.743	0.964	0.824	0.375	0.4	0.389	0.253	1.03	0.948	1.04	0.898	0.858
HCC-44	0.646	0.628	0.584	0.452	0.195	0.612	0.67	0.709	0.716	0.829	0.917		0.763	0.882	0.873	0.937	0.788	0.683
HCC-78	0.469	0.386	0.296	0.255	0.232	0.627	0.458	0.679	0.502	0.405	0.316	0.507	0.468	0.427	0.474	0.686	0.337	0.366
HCC-366	0.632	0.713	0.64	0.445	0.0575	0.637	0.603		0.601	0.0795	0.0611	0.0563	0.0677	0.974	1.05	1.02	0.82	0.419
